# Assay: Dynamic vapor sorption (DVS) analysis
# Type: physicochemical
# Details: bulk material, a batch of Compound 1; FIG. 5
compound,measurement,value
"CCOC(=O)c1cnc2[nH]ccc2c1N[C@@H]1CCCN(C(=O)CC#N)C1 [Compound 1, ethyl (R)-4-((1-(2-cyanoacetyl)piperidin-3-yl)amino)-1H-pyrrolo[2,3-b]pyridine-5-carboxylate]",moisture uptake (DVS isotherms),low moisture uptake

# — patent publication US20230365555A1, “CRYSTALLINE POLYMORPH FORM A OF A JAK INHIBITORAND METHODS FOR ITS PREPARATION” (ACLARIS THERAPEUTICS, INC., priority 2020, published 2023)
